Reference: patent US12065438B2, “Substituted tricyclic compounds as indoleamine 2,3-dioxygenase inhibitors” (Merck Sharp & Dohme LLC, priority 2019, dated 2024)

Legend:
IDO1 [1] = biological target: T1, IDO1 (Homo sapiens, UniProt P14902); test: IDO1 Human Whole Blood Assay; assay type: cell-based; details: LPS and IFNγ 100 ng/mL, overnight (18 h), kynurenine by LC/MS/MS
Method: IDO1 Human Whole Blood Assay
Compounds to be tested were serially diluted in ten 3-fold steps in DMSO starting from 10 mM. 3 μL of compound dilutions or DMSO alone were then dispensed from the dilution plate into a polypropylene 96-well assay plate containing 97 μL of RPMI medium using an Echo 555 acoustic liquid handler (Labcyte). LPS and IFNγ was prepared in RPMI medium to a 10× of final conc. (1000 ng/mL), final concentration is 100 ng/mL.
240 μL of blood was transferred to each of the wells of a v-bottom 96 well plate. 30 μL of compound was transferred from intermediate dilution plate, and incubated for 15 min. 30 μL from stimulants was then transferred to blood and mixed thoroughly. Plate was covered with breathable membrane and incubated at 37° C. for overnight (18 h).
On day 2, isotope labeled standard solutions of kynurenine and tryptophan was made in water at 10× concentration and 30 μL was added to the blood at 3 μM final concentration. The assay plates were centrifuged at 300×G for 10 min with no brake to separate plasma from red blood cells. 60 μL of plasma samples was removed without disturbing red blood cells. Plasma was diluted with RPMI in 1:1 ratio and proteins were precipitated out with two volumes of Acetonitrile. The plates were centrifuged at 4000×G for 60 min. 20 μL of supernatant was carefully transferred to a 384 well plate containing 40 μL of 0.1% formic acid in water and analyzed by LC/MS/MS.
LC/MS/MS analyses were performed using Thermo Fisher's LX4-TSQ Quantum Ultra system. This system consists of four Agilent binary high-performance liquid chromatography (HPLC) pumps and a TSQ Quantum Ultra triple quadrupole MS/MS instrument. For each sample, 5 μL were injected onto an Atlantis T3 column (2.1 mm×150 mm, 3 μm particle size) from Waters. The mobile phase gradient pumped at 0.8 mL/min was used to elute the analytes from the column at 25° C. The elution started at 0% B increasing linearly to 25% B at 6.5 min, holding at 25% for 1 min, re-equilibrating to 10 min. Mobile phase A consisted of 0.1% formic acid in water. Mobile phase B consisted of 0.1% of formic acid in acetonitrile. Data were acquired in positive mode using a HESI interface. The operational parameters for the TSQ Quantum Ultra instrument were a spray voltage of 4000 V, capillary temperature of 380° C., vaporizer temperature 400° C., shealth gas 60 arbitrary units, Aux gas 20 arbitrary units, tube lens 85 and collision gas 1.2 mTorr. SRM chromatograms of kynurenine (Q1: 209.2>Q3:94.0) and internal standard (Q1: 215.3>Q3:98.2) were collected for 90 sec. The peak area was integrated by Xcalibur Quan software. The ratios between the kynurenine generated in the reaction and 2D6-Kynurenine spiked-in internal standard were used to generate percentage inhibition and IC50 values. Compounds were titrated and IC50's were calculated by 4 parameter sigmoidal curve fitting formula.

IDO1 [2] = biological target: T1, IDO1; test: IDO1 Cellular Assay in HeLa Cells Stimulated with IFNγ; assay type: cell-based; parameters: endogenous in cells; host or cells: HeLa cells stimulated with IFNγ; details: HeLa cells stimulated with IFNγ 100 ng/mL, 300 uM L-tryptophan, about 48 hours, fluorescence readout; read-out: IDO1 HELA Cell Assay, IC50
Method: Biological Assays IDO1 Cellular Assay in HeLa Cells Stimulated with IFNγ HeLa cells were cultured in complete HeLa culture medium (90% EMEM, 10% heat-inactivated fetal bovine serum) and expanded to about 1×10^9 cells. The cells were then collected and frozen down at 1×10^7 cells/vial in 1 mL frozen medium (90% complete HeLa culture medium, 10% DMSO). Compounds to be tested were serially diluted in ten 3-fold steps in DMSO starting from 10 mM DMSO stocks in Echo low volume plate(s). Compound dilutions or DMSO alone were then dispensed from the dilution plate(s) into Greiner black 384-well assay plate(s) (catalog #781086, 50 nL/well) using an Echo 550 acoustic liquid handler (Labcyte). Frozen HeLa cells were thawed and transferred into HeLa assay medium (99% complete HeLa culture medium, 1% Pen/Strep) with 20 mL medium/vial of cells. The cells were spun down at 250 g in a table top centrifuge for 5 min and suspended in same volume of HeLa assay medium. The cells were then counted and adjusted to a density of 2×10^5 cells/mL in HeLa assay medium. Sterile L-tryptophan were added to the cells with final concentration of 300 uM L-tryptophan. A small aliquot (2 mL/plate) of HeLa cells were set aside and were not treated with IFNγ, to serve as the Max-E control. The rest of HeLa cells were added with sterile IFNγ (Cat #285-IF, R & D systems) with a final concentration of 100 ng/mL. HeLa cells with and without IFNγ were dispensed to the respective wells of 384-well assay plates containing the compounds. The plates were incubated for about 48 hours at a 37° C., 5% CO2 incubator. Afterwards, 12 μL of 0.5 M methyl isonipecotate in dimethyl sulfoxide were added into each well and the plates were sealed and incubated at 37° C. without CO2 overnight. The plates were centrifuged for 1 min at 200×g. The resulting fluorescence was measured in a Spectramax plate reader (Molecular Devices) with a 400 nm excitation filter and a 510 nm emission filter. The fluorescence intensity of each well was corrected for the background observed in wells with non-IFNγ-treated cells and was expressed as a fraction of the intensity observed in wells of IFNγ-treated cells and DMSO only. Potencies were calculated by […] least squares fit to the four parameter logistic IC50 equation.

T1 sequence (P14902 whole entry): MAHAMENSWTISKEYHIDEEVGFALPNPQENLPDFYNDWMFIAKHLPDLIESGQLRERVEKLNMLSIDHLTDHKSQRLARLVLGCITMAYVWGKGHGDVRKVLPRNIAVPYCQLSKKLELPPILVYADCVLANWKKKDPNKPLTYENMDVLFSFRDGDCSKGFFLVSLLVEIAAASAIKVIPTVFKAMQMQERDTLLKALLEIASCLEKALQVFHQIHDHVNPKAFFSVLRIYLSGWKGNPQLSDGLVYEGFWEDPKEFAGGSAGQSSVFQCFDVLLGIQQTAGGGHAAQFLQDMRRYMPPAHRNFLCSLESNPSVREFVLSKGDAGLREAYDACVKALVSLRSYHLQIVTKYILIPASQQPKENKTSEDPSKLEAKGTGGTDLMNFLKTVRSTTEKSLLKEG

Compound	IC50 (IDO1 [1]) [nM]	IC50 (IDO1 [2]) [nM]
CC(C)(NC(=O)c1ccc(F)cc1)c1ccc2c(n1)C1CC1CN2C(=O)OC1CC1 (single isomer, unassigned) [Example 32, cyclopropyl 2-(2-(4-fluorobenzamido)propan-2-yl)-6,6a,7,7a-tetrahydro-5H-cyclopropa[c][1,5]naphthyridine-5-carboxylate]	778	7.56
CC(C)(O)c1nccc(N2CC3CC3c3nc(C4(NC(=O)c5ccc(F)cc5)CC4)ccc32)n1 (centres unmarked) [Example 18, 4-fluoro-N-(1-(5-(2-(2-hydroxypropan-2-yl)pyrimidin-4-yl)-6,6a,7,7a-tetrahydro-5H-cyclopropa[c][1,5]naphthyridin-2-yl)cyclopropyl)benzamide]	248	12
O=C(NC1(c2ccc3c(n2)C2CC2CN3c2ccnc(C3CC3)n2)CC1)c1ccc(F)cc1 (centres unmarked) [Example 15, N-(1-(5-(2-cyclopropyl-pyrimidin-4-yl)-6,6a,7,7a-tetrahydro-5H-cyclo-propa[c][1,5]naphthyridin-2-yl)cyclopropyl)-4-fluorobenzamide]	50	4.4
CC(C)(NC(=O)c1ccc(F)cc1)c1ccc2c(n1)C1CC1CN2C(=O)C(F)(F)F (centres unmarked) [Example 35, 2-(2-(4-fluorobenzamido)propan-2-yl)-5-(2,2,2-trifluoroacetyl)-6,6a,7,7a-tetrahydro-5H-cyclopropa[c][1,5]naphthyridin-1-ium]	778	1300
CC(C)(NC(=O)c1ccc(F)cc1)c1ccc2c(n1)[C@@H]1C[C@@H]1CN2C(=O)OC1CC1 (single isomer, unassigned) [Example 33]	465	4.05
4-fluoro-N-(2-((6aS,7aR)-5-(2-methylpyrimidin-4-yl)-6,6a,7,7a-tetrahydro-5H-cyclopropa[c][1,5]naphthyridin-2-yl)propan-2-yl)benzamide [Example 30]	126	6.6
O=C(NC1(c2ccc3c(n2)[C@@H]2C[C@@H]2CN3C(=O)OC2CC2)CC1)c1ccc(F)cc1 (single isomer, unassigned) [Example 21]	946	6.03
CCC(NC(=O)c1ccc(F)cc1)c1ccc2c(n1)C1CC1CN2C(=O)OC1CC1 (single isomer, unassigned) [Example 37, cyclopropyl 2-(1-(4-fluorobenzamido)propyl)-6,6a,7,7a-tetrahydro-5H-cyclopropa[c][1,5]naphthyridine-5-carboxylate]	54	2.83
C[C@@H](NC(=O)c1ccc(F)cc1)c1ccc2c(n1)[C@@H]1C[C@@H]1CN2C(=O)OC1CC1 [Example 27, cyclopropyl (6aS,7aR)-2-((R)-1-(4-fluorobenzamido)-ethyl)-6,6a,7,7a-tetrahydro-5H-cyclopropa[c][1,5]-naphthyridine-5-carboxylate]	463	3.23
O=C(NC1(c2ccc3c(n2)C2CC2CN3c2ccnc(C3CC3)n2)CC1)c1ccc(F)cc1 (centres unmarked) [Example 16, N-(1-(5-(2-cyclopropyl-pyrimidin-4-yl)-6,6a,7,7a-tetrahydro-5H-cyclo-propa[c][1,5]naphthyridin-2-yl)cyclopropyl)-4-fluorobenzamide]	32	2.6
CCc1nccc(N2CC3CC3c3nc(C4(NC(=O)c5ccc(F)cc5)CC4)ccc32)n1 (centres unmarked) [Example 14, N-(1-(5-(2-ethylpyrimidin-4-yl)-6,6a,7,7a-tetrahydro-5H-cyclopropa[c][1,5]-naphthyridin-2-yl)cyclo-propyl)-4-fluorobenzamide]	105	3.5
O=C(NC1(c2ccc3c(n2)C2CC2CN3c2ccnc(CO)n2)CC1)c1ccc(F)cc1 (centres unmarked) [Example 19, 4-fluoro-N-(1-(5-(2-(hydroxymethyl)pyrimidin-4-yl)-6,6a,7,7a-tetrahydro-5H-cyclopropa[c][1,5]naphthyridin-2-yl)cyclopropyl)benzamide]	151	11
O=C(C1CC1)N1CC2CC2c2cc(C3(C(=O)Nc4ccc(F)cc4)CCC3)ccc21 (single isomer, unassigned) [Example 4, 1-(3-(cyclopropanecarbonyl)-1a,2,3,7b-tetrahydro-1H-cyclopropa[c]quinolin-6-yl)-N-(4-fluorophenyl)cyclobutanecarboxamide]	37	2.92
